The record followed here is patent publication US9908868B2, “Isoindolinone compounds as GPR119 modulators for the treatment of diabetes, obesity, dyslipidemia and related disorders” (SANOFI, priority 2014, dated 2018).

Where only a bound is given, the exact number is not on record here.

This experiment addresses T1, human GPR119 (Homo sapiens, UniProt Q8TDV5).
T1 construct: expressed in transfected cells
T1 sequence (Q8TDV5 1-335): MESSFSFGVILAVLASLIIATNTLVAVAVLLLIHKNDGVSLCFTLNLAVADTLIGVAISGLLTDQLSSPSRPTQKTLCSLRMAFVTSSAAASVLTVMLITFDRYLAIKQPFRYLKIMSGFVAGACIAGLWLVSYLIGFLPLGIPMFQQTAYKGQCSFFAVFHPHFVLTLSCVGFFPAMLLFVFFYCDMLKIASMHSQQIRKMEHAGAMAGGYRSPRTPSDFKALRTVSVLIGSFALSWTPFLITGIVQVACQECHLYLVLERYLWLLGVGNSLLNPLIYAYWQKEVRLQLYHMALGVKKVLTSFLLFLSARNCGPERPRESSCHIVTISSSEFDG
Briefly: Functional cellular assay measuring GPR119-mediated cAMP release (HTRF) in HEK-293 cells stably expressing recombinant human GPR119. The experiment is classed as cell-based. The settings on record: cAMP response, cell line expressing human GPR119, 30 minutes at room temperature. An outline of the steps:
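HEK-293 cells stably expressing recombinant human GPR119, suspended at 400000 cells/mL in HBSS/20 mM HEPES/0.1% BSA/2 mM IBMX, exposed to compound for 30 minutes at room temperature. cAMP detected by HTRF (665/620 nm ratio) after 1 h with reagents in lysis buffer. EC50 taken as concentration giving 50% of maximal activation.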

For the compound `CN(C)C(=O)CN1Cc2ccc(N3CC[C@@H](Oc4ccc(OCCC5CC5)nc4)C3=O)cc2C1=O` [Example 1-38, 2-[6-[(3R)-3-[[6-(2-cyclopropylethoxy)-3-pyridyl]oxy]-2-oxo-pyrrolidin-1-yl]-1-oxo-isoindolin-2-yl]-N,N-dimethyl-acetamide], the EC50 was found to be 35 nM.

Consider `CS(=O)(=O)CN1Cc2ncc(N3CC[C@@H](Oc4ccc(Oc5ccc(F)cc5)nc4)C3=O)cc2C1=O` [Example 1-66, 3-[(3R)-3-[[6-(4-fluorophenoxy)-3-pyridyl]oxy]-2-oxo-pyrrolidin-1-yl]-6-(methylsulfonylmethyl)-7H-pyrrolo[3,4-b]pyridin-5-one], for which the EC50 was determined as 163 nM.

Consider `CCOC(=O)CN1Cc2ccc(N3CC[C@@H](Oc4ccc(OCC5CC5)nc4)C3=O)cc2C1=O` [Example 1-29, ethyl 2-[6-[(3R)-3-[[6-(cyclopropylmethoxy)-3-pyridyl]oxy]-2-oxo-pyrrolidin-1-yl]-1-oxo-isoindolin-2-yl]acetate], for which the EC50 was found to be 15 nM.

As to `CNC(=O)CN1Cc2c(F)cc(N3CC[C@@H](Oc4ccc(OCCC5CC5)nc4)C3=O)cc2C1=O` [Example 4-28, 2-[6-[(3R)-3-[[6-(2-cyclopropylethoxy)-3-pyridyl]oxy]-2-oxo-pyrrolidin-1-yl]-4-fluoro-1-oxo-isoindolin-2-yl]-N-methyl-acetamide], the EC50 worked out at 49 nM.

With `CN(C)C(=O)CN1Cc2ccc(N3CC[C@@H](Oc4ccc(C(=O)C5CC5(F)F)cc4)C3=O)cc2C1=O` (stereo partly drawn) [Example 2-65, 2-[6-[(3R)-3-[4-(2,2-difluorocyclopropanecarbonyl)phenoxy]-2-oxo-pyrrolidin-1-yl]-1-oxo-isoindolin-2-yl]-N,N-dimethyl-acetamide], the EC50 worked out at 125 nM.

In the case of `CC1(C(=O)c2ccc(O[C@@H]3CCN(c4ccc5c(c4)C(=O)N(CC(N)=O)C5)C3=O)cn2)CC1` [Example 2-49, 2-[6-[(3R)-3-[[6-(1-methylcyclopropanecarbonyl)-3-pyridyl]oxy]-2-oxo-pyrrolidin-1-yl]-1-oxo-isoindolin-2-yl]acetamide], the concentration giving a half-maximal response (EC50) came out at 424 nM.

As for `CCOc1ccc(O[C@@H]2CCN(c3cc(F)c4c(c3)C(=O)N(CC(=O)O)C4)C2=O)cn1` [Example 5-02, 2-[6-[(3R)-3-[(6-ethoxy-3-pyridyl)oxy]-2-oxo-pyrrolidin-1-yl]-4-fluoro-1-oxo-isoindolin-2-yl]acetic acid], the half-maximal effective concentration (EC50) was 6080 nM.

On to `NC(=O)CN1Cc2ccc(N3CC[C@@H](Oc4ccc(C(=O)C5CC5)cc4)C3=O)cc2C1=O` [Example 2-53, 2-[6-[(3R)-3-[4-(cyclopropanecarbonyl)phenoxy]-2-oxo-pyrrolidin-1-yl]-1-oxo-isoindolin-2-yl]acetamide], for which the EC50 stood at 130 nM.

On to `CN(C)C(=O)CN1Cc2ccc(N3CC[C@@H](Oc4ccc(-c5cnccn5)cc4)C3=O)cc2C1=O` [Example 2-38, N,N-dimethyl-2-[1-oxo-6-[(3R)-2-oxo-3-(4-pyrazin-2-ylphenoxy)pyrrolidin-1-yl]isoindolin-2-yl]acetamide], for which the EC50 was found to be 808 nM.

With `CN(C)C(=O)CN1Cc2ccc(N3CC[C@@H](Oc4ccc(-c5cnco5)cc4)C3=O)cc2C1=O` [Example 2-37, N,N-dimethyl-2-[6-[(3R)-3-(4-oxazol-5-ylphenoxy)-2-oxo-pyrrolidin-1-yl]-1-oxo-isoindolin-2-yl]acetamide], the half-maximal effective concentration (EC50) came out at 862 nM.

As to `O=C1c2cc(N3CC[C@@H](Oc4ccc(OCCC5CC5)nc4)C3=O)cc(F)c2CN1CCO` [Example 1-36, 6-[(3R)-3-[[6-(2-cyclopropylethoxy)-3-pyridyl]oxy]-2-oxo-pyrrolidin-1-yl]-4-fluoro-2-(2-hydroxyethyl)isoindolin-1-one], the EC50 is 142 nM.

Regarding `CN(C)C(=O)CN1Cc2ccc(N3CC[C@@H](Oc4ccc(OCC5CC5)nc4)C3=O)cc2C1=O` [Example 1-39, 2-[6-[(3R)-3-[[6-(cyclopropylmethoxy)-3-pyridyl]oxy]-2-oxo-pyrrolidin-1-yl]-1-oxo-isoindolin-2-yl]-N,N-dimethyl-acetamide], the EC50 stood at 60 nM.

In the case of `Cn1nnc(CN2Cc3c(F)cc(N4CC[C@@H](Oc5ccc(OCC6CC6)nc5)C4=O)cc3C2=O)n1` [Example 1-18, 6-[(3R)-3-[[6-(cyclopropylmethoxy)-3-pyridyl]oxy]-2-oxo-pyrrolidin-1-yl]-4-fluoro-2-[(2-methyltetrazol-5-yl)methyl]isoindolin-1-one], the EC50 was determined as 65 nM.

On to `Cc1noc(COc2ccc(O[C@@H]3CCN(c4ccc5c(c4)C(=O)N(CC(=O)N(C)C)C5)C3=O)cc2)n1` [Example 2-43, N,N-dimethyl-2-[6-[(3R)-3-[4-[(3-methyl-1,2,4-oxadiazol-5-yl)methoxy]phenoxy]-2-oxo-pyrrolidin-1-yl]-1-oxo-isoindolin-2-yl]acetamide], for which the 50% effective concentration (EC50) worked out at 1500 nM.

Take `CC(C)c1noc(-c2ccc(O[C@@H]3CCN(c4ccc5c(c4)C(=O)N(CC(=O)N(C)C)C5)C3=O)cc2)n1` [Example 2-34, 2-[6-[(3R)-3-[4-(3-isopropyl-1,2,4-oxadiazol-5-yl)phenoxy]-2-oxo-pyrrolidin-1-yl]-1-oxo-isoindolin-2-yl]-N,N-dimethyl-acetamide]: the EC50 is 84 nM.

For `O=C1c2cc(N3CC[C@@H](Oc4ccc(OCCC5CC5)nc4)C3=O)cc(F)c2CN1CCCO` [Example 5-06, 6-[(3R)-3-[[6-(2-cyclopropylethoxy)-3-pyridyl]oxy]-2-oxo-pyrrolidin-1-yl]-4-fluoro-2-(3-hydroxypropyl)isoindolin-1-one], the EC50 is 609 nM.

Consider `C[S+]([O-])CN1Cc2ccc(N3CC[C@@H](Oc4ccc(C(=O)C5CC5)nc4)C3=O)cc2C1=O` (stereo partly drawn) [Example 1-58, 6-[(3R)-3-[[6-(cyclopropanecarbonyl)-3-pyridyl]oxy]-2-oxo-pyrrolidin-1-yl]-2-(methylsulfinylmethyl)isoindolin-1-one], for which the EC50 was 680 nM.

As to `CCOc1ccc(O[C@@H]2CCN(c3cc(F)c4c(c3)C(=O)N(C(C)(C)C)C4)C2=O)cn1` [Example 1-30, 2-tert-butyl-6-[(3R)-3-[(6-ethoxy-3-pyridyl)oxy]-2-oxo-pyrrolidin-1-yl]-4-fluoro-isoindolin-1-one], the EC50 was over 100000 nM.

On to `COC(=O)CN1C(=O)c2cc(N3CC[C@@H](Oc4ccc(OCC5CC5)nc4)C3=O)ccc2C1C` (stereo partly drawn) [Example 1-15, methyl 2-[5-[(3R)-3-[[6-(cyclopropylmethoxy)-3-pyridyl]oxy]-2-oxo-pyrrolidin-1-yl]-1-methyl-3-oxo-isoindolin-2-yl]acetate], for which the EC50 was determined as 221 nM.

As for `CN(C)C(=O)CN1Cc2ccc(N3CC[C@@H](Oc4ccc(C(=O)C5CC(F)(F)C5)cc4)C3=O)cc2C1=O` [Example 2-63, 2-[6-[(3R)-3-[4-(3,3-difluorocyclobutanecarbonyl)phenoxy]-2-oxo-pyrrolidin-1-yl]-1-oxo-isoindolin-2-yl]-N,N-dimethyl-acetamide], the EC50 was determined as 98 nM.

In the case of `CC1c2ccc(N3CC[C@@H](Oc4ccc(OCC5CC5)nc4)C3=O)cc2C(=O)N1CC(=O)N(C)C` (stereo partly drawn) [Example 1-13, 2-[5-[(3R)-3-[[6-(cyclopropylmethoxy)-3-pyridyl]oxy]-2-oxo-pyrrolidin-1-yl]-1-methyl-3-oxo-isoindolin-2-yl]-N,N-dimethyl-acetamide], the concentration for a half-maximal effect (EC50) came out at 237 nM.

Take `CC(C)NC(=O)CN1Cc2ccc(N3CC[C@@H](Oc4ccc(OCC(F)(F)F)nc4)C3=O)cc2C1=O` [Example 4-37, N-isopropyl-2-[1-oxo-6-[(3R)-2-oxo-3-[[6-(2,2,2-trifluoroethoxy)-3-pyridyl]oxy]pyrrolidin-1-yl]isoindolin-2-yl]acetamide]: the EC50 was 232 nM.

As to `CN(C)C(=O)CN1Cc2ccc(N3CC[C@@H](Oc4ccc(C(=O)CC5CC5)cc4)C3=O)cc2C1=O` [Example 2-21, 2-[6-[(3R)-3-[4-(2-cyclopropylacetyl)phenoxy]-2-oxo-pyrrolidin-1-yl]-1-oxo-isoindolin-2-yl]-N,N-dimethyl-acetamide], the EC50 was 72 nM.

In the case of `COCCNC(=O)CN1Cc2c(F)cc(N3CC[C@@H](Oc4ccc(OCC5CC5)nc4)C3=O)cc2C1=O` [Example 4-23, 2-[6-[(3R)-3-[[6-(cyclopropylmethoxy)-3-pyridyl]oxy]-2-oxo-pyrrolidin-1-yl]-4-fluoro-1-oxo-isoindolin-2-yl]-N-(2-methoxyethyl)acetamide], the EC50 turned out to be 157 nM.

Turning to `CN(C)C(=O)CN1Cc2ccc(N3CC[C@@H](Oc4ccc(-c5nccs5)cc4)C3=O)cc2C1=O` [Example 2-42, N,N-dimethyl-2-[1-oxo-6-[(3R)-2-oxo-3-(4-thiazol-2-ylphenoxy)pyrrolidin-1-yl]isoindolin-2-yl]acetamide], the EC50 was 117 nM.

Turning to `O=C(O)CNC(=O)CN1Cc2ccc(N3CC[C@@H](Oc4ccc(OCC5CC5)nc4)C3=O)cc2C1=O` [Example 3-04, 2-[[2-[6-[(3R)-3-[[6-(cyclopropylmethoxy)-3-pyridyl]oxy]-2-oxo-pyrrolidin-1-yl]-1-oxo-isoindolin-2-yl]acetyl]amino]acetic acid], the EC50 amounted to 807 nM.

In the case of `CN(C)C(=O)CN1Cc2ccc(N3CC[C@@H](Oc4ccc(NCC5CC5)nc4)C3=O)cc2C1=O` [Example 2-08, 2-[6-[(3R)-3-[[6-(cyclopropylmethylamino)-3-pyridyl]oxy]-2-oxo-pyrrolidin-1-yl]-1-oxo-isoindolin-2-yl]-N,N-dimethyl-acetamide], the EC50 is 2120 nM.

As to `CN(C)C(=O)CN1Cc2ccc(N3CC[C@@H](Oc4ccc(F)nc4)C3=O)cc2C1=O` [Example 2-17, 2-[6-[(3R)-3-[(6-fluoro-3-pyridyl)oxy]-2-oxo-pyrrolidin-1-yl]-1-oxo-isoindolin-2-yl]-N,N-dimethyl-acetamide], the EC50 is 9360 nM.
